Reference: article PMC3914206

Columns and labels:
Type in all cases: binding
Parameters in all cases: KINOMEscan: ABL1(F317L)-phosphorylated / KINOMEscan: ABL1(H396P)-nonphosphorylated / KINOMEscan: ABL1(H396P)-phosphorylated / KINOMEscan: ABL1(M351T)-phosphorylated / KINOMEscan: ABL1(T315I)-phosphorylated / KINOMEscan: ABL1-nonphosphorylated / KINOMEscan: ABL1-phosphorylated / KINOMEscan: ACVR2A / KINOMEscan: ACVR2B / KINOMEscan: ADCK3 / KINOMEscan: ADCK4 / KINOMEscan: AKT1 / KINOMEscan: AKT3 / KINOMEscan: ALK / KINOMEscan: ARK5 / KINOMEscan: AURKA / KINOMEscan: AURKC / KINOMEscan: BIKE / KINOMEscan: BMPR1A / KINOMEscan: BMPR1B / KINOMEscan: BMX / KINOMEscan: BRK / KINOMEscan: BRSK1 / KINOMEscan: BRSK2 / KINOMEscan: CAMK1 / KINOMEscan: CAMK1D / KINOMEscan: CAMK1G / KINOMEscan: CAMK2A / KINOMEscan: CAMK2B / KINOMEscan: AAK1 / KINOMEscan: CAMK2D / KINOMEscan: CAMK2G / KINOMEscan: ABL1(F317I)-nonphosphorylated / KINOMEscan: ABL1(F317I)-phosphorylated / KINOMEscan: ABL1(F317L)-nonphosphorylated: unit: % Ctrl
panel of 442 kinases [1] = molecular target: T1, panel of 442 kinases (Homo sapiens, UniProt P07947); settings: kinase YES; compound concentration 10 µM
T1 construct: purchased KINOMEscan
Text: (§1) We assessed the selectivity of members of this scaffold using the KINOMEscan methodology across a near comprehensive panel of 442 kinases [[18,27]].

panel of 442 kinases [2] = molecular target: T2, panel of 442 kinases (Homo sapiens, UniProt O95819); settings: Compound Concentration 10 µM
T2 construct: purchased KINOMEscan
Text: as §1

panel of 442 kinases [3] = molecular target: T3, panel of 442 kinases (Homo sapiens, UniProt Q9UQM7); settings: Compound Concentration 10 µM
T3 construct: purchased KINOMEscan
Text: as §1

panel of 442 kinases [4] = molecular target: T4, panel of 442 kinases (Homo sapiens, UniProt P11309); settings: Compound Concentration 10 µM
T4 construct: purchased KINOMEscan
Text: as §1

T2 sequence (O95819 whole entry): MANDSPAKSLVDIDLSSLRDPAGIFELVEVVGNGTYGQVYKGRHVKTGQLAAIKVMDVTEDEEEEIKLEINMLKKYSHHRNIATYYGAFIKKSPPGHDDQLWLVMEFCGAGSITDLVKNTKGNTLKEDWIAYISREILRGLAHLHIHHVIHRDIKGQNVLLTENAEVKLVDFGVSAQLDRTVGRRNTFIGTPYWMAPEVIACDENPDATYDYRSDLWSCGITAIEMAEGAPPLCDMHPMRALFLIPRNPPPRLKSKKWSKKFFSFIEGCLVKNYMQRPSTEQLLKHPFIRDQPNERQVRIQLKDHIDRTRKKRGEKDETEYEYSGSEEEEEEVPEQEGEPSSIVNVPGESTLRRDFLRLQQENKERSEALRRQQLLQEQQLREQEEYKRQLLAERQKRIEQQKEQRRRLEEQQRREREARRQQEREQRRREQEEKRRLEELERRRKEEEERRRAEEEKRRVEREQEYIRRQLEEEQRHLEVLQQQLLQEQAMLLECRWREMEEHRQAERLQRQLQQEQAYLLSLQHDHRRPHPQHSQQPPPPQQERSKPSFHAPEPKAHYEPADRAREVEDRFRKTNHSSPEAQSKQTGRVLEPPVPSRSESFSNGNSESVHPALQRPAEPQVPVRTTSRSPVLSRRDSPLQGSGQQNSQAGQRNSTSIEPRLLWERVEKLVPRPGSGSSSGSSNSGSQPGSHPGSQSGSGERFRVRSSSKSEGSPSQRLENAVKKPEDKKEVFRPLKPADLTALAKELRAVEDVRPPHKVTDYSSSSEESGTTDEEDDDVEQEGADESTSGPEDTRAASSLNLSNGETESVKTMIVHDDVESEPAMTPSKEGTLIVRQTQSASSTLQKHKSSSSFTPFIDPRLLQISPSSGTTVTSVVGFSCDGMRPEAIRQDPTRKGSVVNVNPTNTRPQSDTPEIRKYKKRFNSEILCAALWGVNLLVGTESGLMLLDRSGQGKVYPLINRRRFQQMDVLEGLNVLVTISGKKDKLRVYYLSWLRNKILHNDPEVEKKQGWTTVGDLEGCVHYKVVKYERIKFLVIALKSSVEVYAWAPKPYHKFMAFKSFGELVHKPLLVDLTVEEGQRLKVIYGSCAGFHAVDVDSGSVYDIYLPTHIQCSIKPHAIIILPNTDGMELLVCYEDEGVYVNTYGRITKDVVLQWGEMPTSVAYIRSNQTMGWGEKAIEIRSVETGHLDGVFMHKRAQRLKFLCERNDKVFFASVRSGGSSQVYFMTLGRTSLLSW
T4 sequence (P11309 whole entry): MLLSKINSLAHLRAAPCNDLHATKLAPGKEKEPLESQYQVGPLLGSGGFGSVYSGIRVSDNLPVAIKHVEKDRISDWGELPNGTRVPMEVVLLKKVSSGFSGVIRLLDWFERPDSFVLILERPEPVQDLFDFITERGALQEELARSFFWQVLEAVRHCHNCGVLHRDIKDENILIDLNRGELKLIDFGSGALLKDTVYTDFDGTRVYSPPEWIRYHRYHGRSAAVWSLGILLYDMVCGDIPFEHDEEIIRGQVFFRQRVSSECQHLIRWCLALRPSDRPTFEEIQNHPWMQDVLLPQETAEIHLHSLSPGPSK
T1 sequence (P07947 whole entry): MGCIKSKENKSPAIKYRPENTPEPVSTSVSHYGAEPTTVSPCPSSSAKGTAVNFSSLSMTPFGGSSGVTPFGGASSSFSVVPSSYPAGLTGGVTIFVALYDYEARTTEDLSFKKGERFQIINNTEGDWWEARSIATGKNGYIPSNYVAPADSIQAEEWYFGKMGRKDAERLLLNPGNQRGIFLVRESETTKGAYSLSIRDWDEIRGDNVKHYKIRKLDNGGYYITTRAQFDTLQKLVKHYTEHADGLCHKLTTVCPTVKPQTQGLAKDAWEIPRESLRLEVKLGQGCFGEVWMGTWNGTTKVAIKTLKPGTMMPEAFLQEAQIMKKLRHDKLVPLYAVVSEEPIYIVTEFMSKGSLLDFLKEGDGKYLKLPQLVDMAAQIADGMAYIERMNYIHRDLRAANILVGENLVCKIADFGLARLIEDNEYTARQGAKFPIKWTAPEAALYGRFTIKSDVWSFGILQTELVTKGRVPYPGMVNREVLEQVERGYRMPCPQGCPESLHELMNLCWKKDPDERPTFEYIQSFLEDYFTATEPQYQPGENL
T3 sequence (Q9UQM7 whole entry): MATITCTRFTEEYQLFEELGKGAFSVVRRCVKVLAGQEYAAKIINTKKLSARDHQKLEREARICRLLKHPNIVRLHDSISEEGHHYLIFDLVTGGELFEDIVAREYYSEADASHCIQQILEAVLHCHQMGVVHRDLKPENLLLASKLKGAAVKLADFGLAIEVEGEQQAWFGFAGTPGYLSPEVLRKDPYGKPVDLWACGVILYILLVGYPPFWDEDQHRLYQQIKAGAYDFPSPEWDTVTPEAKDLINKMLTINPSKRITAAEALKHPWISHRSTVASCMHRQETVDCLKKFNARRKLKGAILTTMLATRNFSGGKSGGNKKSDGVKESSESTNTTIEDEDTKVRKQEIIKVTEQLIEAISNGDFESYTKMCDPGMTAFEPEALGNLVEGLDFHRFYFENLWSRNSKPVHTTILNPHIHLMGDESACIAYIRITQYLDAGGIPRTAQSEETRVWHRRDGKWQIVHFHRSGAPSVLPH

| SMILES | % Ctrl, YES (panel of 442 kinases [1]) [% Ctrl] | KINOMEscan: MAP4K4 (panel of 442 kinases [2]) | KINOMEscan: CAMK2A (panel of 442 kinases [3]) | KINOMEscan: PIM1 (panel of 442 kinases [4]) |
| --- | --- | --- | --- | --- |
| COc1cc(C(=O)N2CCC(N3CCN(C)CC3)CC2)ccc1Nc1ncc2c(n1)N(C)c1ccccc1C(=O)N2C [15 (LRRK2-IN-1)] | 100 | 85 | 21 | 100 |
| CCOc1cc(C(=O)N2CCC(N3CCN(C)CC3)CC2)ccc1Nc1ncc2c(n1)N(C1CCCC1)c1ccccc1C(=O)N2C [Compound 26] | 100 | 96 | 100 | 100 |
| COc1cc(C(=O)N2CCC(N3CCN(C)CC3)CC2)ccc1Nc1ncc2c(n1)N1CCc3cccc(c31)C(=O)N2C [Compound 24] | 100 | 35 | 44 |  |
| COc1cc(C(=O)N2CCC(N3CCN(C)CC3)CC2)ccc1Nc1ncc2c(n1)N(C1CCCC1)c1ccccc1C(=O)N2C [Compound 25, 11-cyclopentyl-2-((2-methoxy-4-(4-(4-methylpiperazin-1-yl)piperidine-1-carbonyl)phenyl)amino)-5-methyl-5H-benzo[e]pyrimido[5,4-b][1,4]diazepin-6(11H)-one] | 89 | 98 | 81 | 97 |
